Measured values: patent publication US20250382296A1, “NITROGEN-CONTAINING FUSED THREE RING PRMT5 INHIBITOR, AND PREPARATION METHOD THEREFOR AND PHARMACEUTICAL USE THEREOF” (Abbisko Therapeutics Co., Ltd., priority 2022, published 2025)

Assays:
[1] = system: HCT 116 MTAP-knockout cells; experiment: Inhibition of proliferation of HCT116 MTAP-knockout cells (CellTiter-Glo, 6 days); type: cell-based, human; details: for IC50: Homo sapiens, HCT-116, 144 h, proliferation inhibition, HCT116 MTAP-knockout, 6 days, CellTiter-Glo; for Selectivity: IC50 HCT116 wild-type cells / IC50 HCT116 MTAP-knockout cells
Description: (§1) 1. HCT 116 MTAP-knockout cells and HCT 116 wild-type MTAP cells were plated in 96-well flat-bottom plates and cultured overnight at 37° C. and […] in McCoy's 5A medium containing 10% fetal bovine serum+1% penicillin-streptomycin.
(§2) 2. The next day, compounds were each dissolved in DMSO, diluted successively with DMSO and medium and then transferred to cell plates; the final concentration of each compound was 10 μM, 4-fold dilution was performed to obtain 9 concentration points, and a DMSO control was provided.
(§3) 3. Cells not treated with compound were subjected to CellTiter-Glo Luminescent Cell Viability Assay (Promega) to detect the cell viability, and reference was made to the kit instructions for the operation; the plates were then placed on an EnVision Multilabel Reader to detect luminescence signals.
(§4) 4. Meanwhile, the cell plates containing cells treated with compounds were cultured continuously at 37° C. and […] CO2 for 6 days.
(§5) 5. Then, the cell viability was also detected by CellTiter-Glo.
(§6) 6. Finally, dose response curves were plotted using the four parameter dose response curve module of GraphPad Prism v 9.2.0 software and proliferation inhibition IC50 (unit: nM) was calculated.

[2] = system: HCT 116 wild-type MTAP cells; experiment: Inhibition of proliferation of HCT116 wild-type MTAP cells (CellTiter-Glo, 6 days); type: cell-based; details: Homo sapiens, HCT-116, 144 h
Description: as §1, §2, §3, §4, §5, §6

| SMILES | IC50 [1] | Selectivity [1] | IC50 [2] |
| --- | --- | --- | --- |
| Nc1nc2ccc(C(=O)N(Cc3ccc(C(F)(F)F)nn3)CC3CC3)cc2n2cncc12 [Example 156, 4-amino-N-(cyclopropylmethyl)-N-((6-(trifluoromethyl)pyridazin-3-yl)methyl)imidazo[1,5-a]quinoxaline-8-carboxamide] | 10 nM | 160.7 | 1610 nM |
| Nc1nc2cc(F)c(C(=O)N(Cc3ccc(C(F)(F)F)cn3)CC3CC3)cc2n2cncc12 [Example 163, 4-amino-N-(cyclopropylmethyl)-7-fluoro-N-((5-(trifluoromethyl)pyridin-2-yl)methyl)imidazo[1,5-a]quinoxaline-8-carboxamide] | 6 nM | 55 | 330 nM |
| Cc1cc2nc(N)c3cncn3c2cc1C(=O)N(Cc1ccc(C(F)(F)F)cn1)CC1CC1 [Example 164, 4-amino-N-(cyclopropylmethyl)-7-methyl-N-((5-(trifluoromethyl)pyridin-2-yl)methyl)imidazo[1,5-a]quinoxaline-8-carboxamide] | 8 nM | 88.3 | 706 nM |
| Nc1nc2cc(Cl)c(C(=O)N(Cc3ccc(C(F)(F)F)cn3)CC3CC3)cc2n2cncc12 [Example 165, 4-amino-7-chloro-N-(cyclopropylmethyl)-N-((5-(trifluoromethyl)pyridin-2-yl)methyl)imidazo[1,5-a]quinoxaline-8-carboxamide] | 11 nM | 32.5 | 358 nM |
| Cc1ncc2c(N)nc3ccc(C(=O)N(Cc4ccc(C(F)(F)F)cn4)CC4CC4)cc3n12 [Example 167, 4-amino-N-(cyclopropylmethyl)-1-methyl-N-((5-(trifluoromethyl)pyridin-2-yl)methyl)imidazo[1,5-a]quinoxaline-8-carboxamide] | 74 nM | 36.6 | 2710 nM |
| Cc1ncc2c(N)nc3cc(F)c(C(=O)N(Cc4ccc(C(F)(F)F)cn4)CC4CC4)cc3n12 [Example 168, 4-amino-N-(cyclopropylmethyl)-7-fluoro-1-methyl-N-((5-(trifluoromethyl)pyridin-2-yl)methyl)imidazo[1,5-a]quinoxaline-8-carboxamide] | 111 nM | 71.3 | 7910 nM |
| Cc1cc2nc(N)c3cnc(C)n3c2cc1C(=O)N(Cc1ccc(C(F)(F)F)cn1)CC1CC1 [Example 169, 4-amino-N-(cyclopropylmethyl)-1,7-dimethyl-N-((5-(trifluoromethyl)pyridin-2-yl)methyl)imidazo[1,5-a]quinoxaline-8-carboxamide] | 35 nM | 53.6 | 1880 nM |
| CN(C(=O)c1ccc2nc(N)c3cncn3c2c1)C1COCc2cc(C(F)(F)F)ccc21 (stereo not drawn) [Example 179, 4-amino-N-methyl-N-(7-(trifluoromethyl)isochroman-4-yl)imidazo[1,5-a]quinoxaline-8-carboxamide] | 67 nM | 55.5 | 3720 nM |
| Nc1nc2ccc(C(=O)N(CC3CC3)[C@@H]3COc4nc(C(F)(F)F)ccc43)cc2n2cncc12 [Example 181a, (S)-4-amino-N-(cyclopropylmethyl)-N-(6-(trifluoromethyl)-2,3-dihydrofuro[2,3-b]pyridin-3-yl)imidazo[1,5-a]quinoxaline-8-carboxamide] | 330 nM | 15.5 | 5100 nM |
| Cc1cc2nc(N)c3cncn3c2cc1C(=O)N(c1cnn(C)c1)[C@@H]1COc2nc(C(F)(F)F)ccc21 [Example 206a, (S)-4-amino-7-methyl-N-(1-methyl-1H-pyrazol-4-yl)-N-(6-(trifluoromethyl)-2,3-dihydrofuro[2,3-b]pyridin-3-yl)imidazo[1,5-a]quinoxaline-8-carboxamide] | 41 nM | 54.5 | 2240 nM |
| Cc1cc2nc(N)c3cncn3c2cc1C(=O)N(c1cnn(C)c1)[C@@H]1COc2cc(C(F)(F)F)ccc21 [Example 207a, (S)-4-amino-7-methyl-N-(1-methyl-1H-pyrazol-4-yl)-N-(6-(trifluoromethyl)-2,3-dihydrobenzofuran-3-yl)imidazo[1,5-a]quinoxaline-8-carboxamide] | 2 nM | 35 | 70 nM |
| CCn1cc(N(C(=O)c2ccc3nc(N)c4cncn4c3c2)[C@@H]2COc3cc(C(F)(F)F)ccc32)cn1 [Example 208a, (S)-4-amino-N-(1-ethyl-1H-pyrazol-4-yl)-N-(6-(trifluoromethyl)-2,3-dihydrobenzofuran-3-yl)imidazo[1,5-a]quinoxaline-8-carboxamide] | 5 nM | 104.6 | 523 nM |
| Cn1cc(N(C(=O)c2cc3c(cc2Cl)nc(N)c2cncn23)[C@@H]2COc3cc(C(F)(F)F)ccc32)cn1 [Example 210a, (S)-4-amino-7-chloro-N-(1-methyl-1H-pyrazol-4-yl)-N-(6-(trifluoromethyl)-2,3-dihydrobenzofuran-3-yl)imidazo[1,5-a]quinoxaline-8-carboxamide] | 1 nM | 59 | 59 nM |
| Cn1cc(N(C(=O)c2cc3c(cc2Cl)nc(N)c2cncn23)[C@@H]2COc3nc(C(F)(F)F)ccc32)cn1 [Example 211a, (S)-4-amino-7-chloro-N-(1-methyl-1H-pyrazol-4-yl)-N-(6-(trifluoromethyl)-2,3-dihydrofuro[2,3-b]pyridin-3-yl)imidazo[1,5-a]quinoxaline-8-carboxamide] | 19 nM | 69.9 | 1330 nM |
| Nc1nc2cc(Cl)c(C(=O)N(Cc3ccc(C(F)(F)F)nn3)CC3CC3)cc2n2cncc12 [Example 212, 4-amino-7-chloro-N-(cyclopropylmethyl)-N-((6-(trifluoromethyl)pyridazin-3-yl)methyl)imidazo[1,5-a]quinoxaline-8-carboxamide] | 8 nM | 47.9 | 383 nM |
| Cc1cc2nc(N)c3cncn3c2cc1C(=O)N(Cc1ccc(C(F)(F)F)nn1)CC1CC1 [Example 213, 4-amino-N-(cyclopropylmethyl)-7-methyl-N-((6-(trifluoromethyl)pyridazin-3-yl)methyl)imidazo[1,5-a]quinoxaline-8-carboxamide] | 15 nM | 87.9 | 1320 nM |
| CN(C(=O)c1ccc2nc(N)c3cncn3c2c1)C1COc2cc(-c3cnn(C)c3)ccc21 (stereo not drawn) [Example 214, 4-amino-N-methyl-N-(6-(1-methyl-1H-pyrazol-4-yl)-2,3-dihydrobenzofuran-3-yl)imidazo[1,5-a]quinoxaline-8-carboxamide] | 188 nM | >53.1 | > 10000 nM |
| Nc1nc2cc(F)c(C(=O)N(Cc3ccc(C(F)(F)F)nn3)CC3CC3)cc2n2cncc12 [Example 215, 4-amino-N-(cyclopropylmethyl)-7-fluoro-N-((6-(trifluoromethyl)pyridazin-3-yl)methyl)imidazo[1,5-a]quinoxaline-8-carboxamide] | 8 nM | 39.3 | 314 nM |
| Nc1nc2ccc(C(=O)N(c3cn[nH]c3)[C@@H]3COc4cc(C(F)(F)F)ccc43)cc2n2cncc12 [Example 216, (S)-4-amino-N-(1H-pyrazol-4-yl)-N-(6-(trifluoromethyl)-2,3-dihydrobenzofuran-3-yl)imidazo[1,5-a]quinoxaline-8-carboxamide] | 11 nM | 98.3 | 1080 nM |
| C[Si](C)(C)CCOCn1cc(N(C(=O)c2ccc3nc(N)c4cncn4c3c2)[C@@H]2COc3cc(C(F)(F)F)ccc32)cn1 [Example 217, (S)-4-amino-N-(6-(trifluoromethyl)-2,3-dihydrobenzofuran-3-yl)-N-(1-((2-(trimethylsilyl)ethoxy)methyl)-1H-pyrazol-4-yl)imidazo[1,5-a]quinoxaline-8-carboxamide] | 41 nM | 13.3 | 546 nM |
| Cn1cc(N(C(=O)c2cc3c(cc2F)nc(N)c2cncn23)[C@@H]2COc3cc(C(F)(F)F)ccc32)cn1 [Example 218, (S)-4-amino-7-fluoro-N-(1-methyl-1H-pyrazol-4-yl)-N-(6-(trifluoromethyl)-2,3-dihydrobenzofuran-3-yl)imidazo[1,5-a]quinoxaline-8-carboxamide] | 2 nM | 23.5 | 47 nM |
| Cn1cc(N(C(=O)c2cc3c(cc2F)nc(N)c2cncn23)[C@@H]2COc3nc(C(F)(F)F)ccc32)cn1 [Example 219, (S)-4-amino-7-fluoro-N-(1-methyl-1H-pyrazol-4-yl)-N-(6-(trifluoromethyl)-2,3-dihydrofuro[2,3-b]pyridin-3-yl)imidazo[1,5-a]quinoxaline-8-carboxamide] | 3 nM | 85.7 | 257 nM |
| C[C@@H]1CCN(C(=O)c2ccc3nc(N)c4cncn4c3c2)[C@@H](c2ccc3scnc3c2)C1 [Example 225, (4-aminoimidazo[1,5-a]quinoxalin-8-yl)((2R,4R)-2-(benzo[d]thiazol-5-yl)-4-methylpiperidin-1-yl)methanone] | 499 nM | >20 | > 10000 nM |
